Data reported in PMC3907362, “Synthetic cationic antimicrobial peptides bind with their hydrophobic parts to drug site II of human serum albumin” (BMC Structural Biology, 2014).
Several values for one entry are separate records, joined by “and”; a condition that tells them apart may be missing. Equal values may be shown once. Entries after “also recorded” stand apart in the source; their conditions may differ. Read-outs that look alike come from different tables or passages of the source. Residues, ends and D or L forms follow the SMILES beside them.

Columns and labels:
[1] = test system: Escherichia coli ATCC 25922; assay type: cell-based
Protocol: (§1) The antibacterial activity of CAP 1 and CAP 5 were tested towards Staphylococcus aureus strain ATCC 25923, methicillin resistant Staphylococcus aureus strain ATCC 33591 and Escherichia coli strain ATCC 25922. The studies were performed by Toslab AS employing standard methods.

[2] = test system: Methicillin resistant Staphylococcus aureus ATCC 33591; assay type: cell-based
Protocol: as §1

[3] = test system: Staphylococcus aureus strain ATCC 25923; assay type: cell-based
Protocol: as §1

HSA = HSA (Homo sapiens, UniProt P02768); assay: NMR WaterLOGSY; assay type: binding; conditions: HSA:ligand 1:20
From the text: All NMR experiments were acquired on an Agilent (Varian) inova spectrometer operating at 599.934 MHz for ^1H, equipped with a 2nd generation inverse triple resonance HCN cold probe. […] The difference spectra were produced by internal subtraction and all spectra were acquired with both sculpted solvent suppression during the PFG spin echo and 500 ms solvent presaturation during the relaxation delay. The protein signals were suppressed by a 10 ms T1ρ-spinlock. Finally, the spectra were multiplied with a 3 Hz exponential window function. For reference, double PFG spin echo 1D proton spectra were acquired using the same parameters, including the 10 ms T1ρ-spinlock for protein suppression. […] All samples were monitored for line broadening, quickened relaxation and NOE inversion to spot any direct interaction between ligands before the addition of HSA.

[4] = molecular target: T1, human serum albumin (HSA) (Homo sapiens, UniProt P02768); assay: Non-competitive isothermal titration calorimetry (ITC); conditions: for Kd: pH 7.4
Protocol: The experiments were either performed on a CSC 5300 Nano-Isothermal Titration Calorimeter III (Calorimetry Sciences Corporation, Utah, USA) with a cell volume of 1 mL, or a MicroCal™ iTC200 with a cell volume of 200 μL (MicroCal, LLC., Northampton, MA, USA). In all experiments lyophilized HSA ~99% essential fatty acid and globulin free (Sigma A3782), was weighed out to a nominal concentration and dissolved prior to the experiments in buffer 50 mM Tris, 10 mM CaCl2, pH 7.4 at 25°C. All ligands and peptides were dissolved in the same buffer. Control titrations of ligand into buffer were performed in duplicate to investigate if the heat of dilution would generate a significant signal, and if ligand-ligand interactions were present in the competitive experiments. The same settings as for the corresponding ligand-HSA experiments were applied in the control experiments.
A stirring rate of 150 rpm and an isotherm temperature of 25°C were applied. The response signal was measured at 1 s intervals, and a 200 s baseline was collected prior to the first injection for the purpose of assessing the baseline. Non-competitive experiments were carried out either in duplicates or triplicates. […] In total 40 consecutive injections were performed with a volume of 5 μL and a spacing of 300 s. […] Prior to the first injection, a baseline of 100 s was recorded to ensure instrument stability. The solution was stirred at 150 rpm, and the isothermal temperature set to 25°C. All competitive experiments were carried out in duplicate. […] The first injection was set to a dummy volume of 0.1 μL due to syringe leakage in the baseline equilibration step. An initial delay of 180 s was set to sample the baseline. The applied reference power was 6 μcal/s and an isothermal temperature of 25°C was used. […] For the selected peptides CAP 3 and CAP 5 competitive experiments with reversed order of the reference ligands and the CAP were performed as a control of titration order. The same ITC settings were applied for the non-competitive and competitive experiments with the MicroCal™ iTC200.
The ITC data was analyzed using the NanoAnalyse software from TA Instruments, v2.0.1 (Waters LLC, New Castle, DE, US) or Origin® 7.0. Independent model fit was used to generate the binding isotherm, and the first injection in all titration experiments was omitted in the binding isotherm analysis. The heat of dilution and unspecific binding signal corresponding to the last injection in each experiment was subtracted from all of the heat signals. The quality of the model fit was examined using the statistical modules of the software, the 95% confidence interval based on a 1000 trial calculations in the NanoAnalyze package, and the default non-weighted least square calculation in Origin® 7.0.

selected bacteria = assay: MIC towards selected bacteria, summary over strains; assay type: cell-based; conditions: all bacterial strains tested
Protocol: as §1

[5] = molecular target: T1, human serum albumin (HSA); design: purchased Sigma A3782; conditions: HSA drug site II; ref [34],[35]; read-out: binding affinity (Kd), reported in other studies; cited from earlier work
[6] = Kd, CSC 5300 Nano-Isothermal Titration Calorimeter III, 25°C
[7] = Kd, MicroCal iTC200 (values in parenthesis), 25°C
[8] = CSC 5300 Nano-Isothermal Titration Calorimeter III
[9] = MicroCal iTC200 (values in parenthesis)

T1 sequence (P02768 25-609): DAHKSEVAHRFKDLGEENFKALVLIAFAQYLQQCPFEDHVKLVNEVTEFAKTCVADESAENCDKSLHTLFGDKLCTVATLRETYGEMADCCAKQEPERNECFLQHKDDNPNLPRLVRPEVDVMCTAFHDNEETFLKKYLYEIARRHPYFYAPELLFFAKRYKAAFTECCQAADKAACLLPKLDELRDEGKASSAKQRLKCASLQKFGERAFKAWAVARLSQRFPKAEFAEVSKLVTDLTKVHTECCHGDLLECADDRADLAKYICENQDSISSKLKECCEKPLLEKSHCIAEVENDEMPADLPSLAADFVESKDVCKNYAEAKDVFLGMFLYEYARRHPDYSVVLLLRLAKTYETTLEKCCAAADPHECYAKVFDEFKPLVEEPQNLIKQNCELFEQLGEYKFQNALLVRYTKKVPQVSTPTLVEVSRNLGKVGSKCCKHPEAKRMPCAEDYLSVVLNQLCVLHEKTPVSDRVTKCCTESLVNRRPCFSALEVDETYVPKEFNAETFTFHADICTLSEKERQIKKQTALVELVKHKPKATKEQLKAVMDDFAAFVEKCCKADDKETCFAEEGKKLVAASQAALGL
Sequence of HSA (P02768 25-609): as above

| SMILES | MIC E. coli [1] | MIC MRSA [2] | MIC S. aureus [3] | WaterLOGSY binding to HSA (HSA) | Kd [4, 6] | Kd [4, 7] | also measured |
| --- | --- | --- | --- | --- | --- | --- | --- |
| C[C@H](NC(=O)[C@@H](N)CCCNC(=N)N)C(=O)N[C@@H](CCCNC(=N)N)C(N)=O [CAP 1] (H-Arg-Ala-Arg-NH2) | >499 µM | >499 µM | >499 µM | does not interact directly with HSA and does not and not |  |  | Binding to HSA by ITC, in words ([4]; non-competitive ITC): did not bind to HSA; also recorded: does not bind to HSA; Kd [4]: -; Antimicrobial activity (MIC relative to threshold) (selected bacteria): inactive |
| N=C(N)NCCC[C@H](NC(=O)[C@H](Cc1c[nH]c2ccccc12)NC(=O)[C@@H](N)CCCNC(=N)N)C(=O)NCc1ccccc1 [CAP 2] (HELM PEPTIDE1{R.W.R.[c1ccc(CN[*:1])cc1]}$$$$V2.0) |  |  |  |  | 23 ± 8 µM |  |  |
| N=C(N)NCCC[C@H](NC(=O)[C@H](Cc1ccc(-c2ccccc2)cc1)NC(=O)[C@@H](N)CCCNC(=N)N)C(=O)NCc1ccccc1 [CAP 3] (HELM PEPTIDE1{R.[O=C([C@H](Cc1ccc(-c2ccccc2)cc1)N[*:1])[*:2]].R.[c1ccc(CN[*:1])cc1]}$$$$V2.0) |  |  |  |  | 22 ± 9 µM | 99 µM |  |
| CC(C)(C)c1cc(C(C)(C)C)c2[nH]c(C(C)(C)C)c(C[C@H](NC(=O)[C@@H](N)CCCNC(=N)N)C(=O)N[C@@H](CCCNC(=N)N)C(=O)NCc3ccccc3)c2c1 [CAP 4] |  |  |  |  | 25 ± 9 µM |  |  |
| C[C@H](N)C(=O)N[C@@H](Cc1ccc(-c2ccccc2)cc1)C(=O)N[C@@H](C)C(N)=O [CAP 5] | >523 µM | >523 µM | >523 µM |  |  | 100 µM |  |
| CN(C)c1cccc2c(S(=O)(=O)NCC(=O)O)cccc12 [Dgly, dansylglycine] |  |  |  | clear WaterLOGSY effect | 11 ± 4 µM | 40 µM | TΔS [4, 8]: 2.3 ± 0.5 kcal/mol; n (stoichiometric ratio) [4, 8]: 1.08 ± 0.05; ΔH [4, 8]: -4.5 ± 0.3 kcal/mol; TΔS [4, 9]: 0.5 ± 0.1 kcal/mol; n (stoichiometric ratio) [4, 9]: 1.16 ± 0.01; ΔG [4, 9]: -6.0 kcal/mol and -6.00 ± 0.02 kcal/mol; ΔH [4, 9]: -5.5 ± 0.1 kcal/mol; Kd [5]: 1.7 to 3.2 µM |
